PMC7558535, “In Vitro Metabolism of DWP16001, a Novel Sodium-Glucose Cotransporter 2 Inhibitor, in Human and Animal Hepatocytes” (Pharmaceutics, 2020)

Columns and labels:
[1] = Metabolic stability in mouse hepatocytes; type: in vitro ADME; conditions: pooled cryopreserved hepatocytes, mouse hepatocytes
Experimental: (§1) To evaluate the metabolic stability of DWP16001 in human, dog, monkey, mouse, and rat hepatocytes, pooled cryopreserved hepatocytes were carefully thawed in recovery medium and resuspended in incubation medium (Krebs–Henseleit buffer for mouse, rat, and human; William’s E media for dog and monkey) to 0.5 × 10^6 cells/mL for mouse, 0.67 × 10^6 cells/mL for rat, and 1.0 × 10^6 cells/mL for dog, monkey, and human in accordance with the manufacturer’s protocols. Then, 60-μL aliquots of these hepatocyte suspensions and an equal volume of 2 μM DWP16001 in incubation medium were mixed in 96-well plates and incubated in triplicate for 0, 30, 60, 90, 120, 180, or 240 min in a CO2 incubator at 37 °C. Reactions were stopped by addition of 120 µL of ice-cold acetonitrile to each well and the cell suspension was sonicated for 5 min at 4 °C, followed by centrifugation at 15,000× g for 10 min at 4 °C after 5 min of sonication. 80-µL aliquots of the supernatants were then vortex-mixed with 20 μL of ice-cold ketoconazole (an internal standard) in acetonitrile and analyzed by LC–tandem mass spectrometry (LC-MS/MS). The peak area ratios of DWP16001 versus internal standard at each sampling point were used for the subsequent calculation. Elimination parameters, including half-life (t1/2), intrinsic clearance (Clint), and hepatic clearance (Clhep) of DWP16001 in mouse, rat, dog, monkey, and human were calculated by the following equations [19]. (1) t1/2min=ln2/−k elimination slope (2) ClintmL/min/kg=ln2/t1/2×mL incubation/hepatocytes 10^6 cells×B×10^6 cells/g liver×A g liver/kg BW (3) ClhepmL/min/kg=Qh×Clint/Qh+Clint (4) Hepatic extraction ratio = Clhep/Qh
(§2) Here, A has values of 87.5, 40, 32, 32, and 25.7; B has values of 135, 117, 215, 120, and 139; Qh (representing hepatic blood flow) has values of 90, 55.2, 30.9, 43.4, and 20.7 mL/min/kg, for mouse, rat, dog, monkey, and human, respectively. Hepatic extraction ratio values of ≤ 0.25, 0.25–0.75, and ≥ 0.75 were regarded as low, moderate, and high, respectively.

mouse hepatocytes = assay: Metabolic stability in mouse hepatocytes; type: in vitro ADME
Experimental: as §1, §2

SGLT2 = tested on: SGLT2; set-up: method as in PMID 32183468; conditions: read-out: IC50 (SGLT2 inhibition); cited from earlier work
dog hepatocytes = assay: Metabolic stability in dog hepatocytes; type: in vitro ADME
Experimental: as §1, §2

[2] = Metabolic stability in dog hepatocytes; type: in vitro ADME; conditions: pooled cryopreserved hepatocytes, dog hepatocytes
Experimental: as §1, §2

CYP3A4 = target: T1, CYP3A4 (Homo sapiens, UniProt P08684); assay: Immunoinhibition of DWP16001 metabolism by anti-CYP3A4 antibody in human liver microsomes; type: in vitro ADME; conditions: 5 μM DWP16001, pooled human liver microsomes
T1 construct: purchased Corning Life Sciences
Experimental: DWP16001 (5 μM) in human liver microsomes was incubated with varying concentrations of antibody specific for human CYP3A4 (anti-CYP3A4 antibody). Prior to incubation, human liver microsomes were pretreated with anti-CYP3A4 antibody for 15 min on ice. Reactions were initiated by addition of an aliquot of NADPH-generating system; mixtures were incubated for 60 min at 37 °C. Reactions were terminated by addition of 100 µL of ice-cold ketoconazole (200 ng/mL) in acetonitrile; following centrifugation at 15,000× g for 10 min at 4 °C. Aliquots of supernatant (150 µL) was evaporated using a vacuum concentrator and re-dissolved in 100 µL of 20% methanol; 5 µL aliquots were injected into an LC-MS/MS system.

human hepatocytes = assay: Metabolic stability in human hepatocytes; type: in vitro ADME
Experimental: as §1, §2

[3] = Metabolic stability in human hepatocytes; type: in vitro ADME; conditions: pooled cryopreserved hepatocytes
Experimental: as §1, §2

[4] = Metabolic stability in rat hepatocytes; type: in vitro ADME; conditions: pooled cryopreserved hepatocytes
Experimental: as §1, §2

rat hepatocytes = assay: Metabolic stability in rat hepatocytes; type: in vitro ADME
Experimental: as §1, §2

13 human UGT enzymes = assay: UGT screening, whole panel; type: in vitro ADME; conditions: incubation of DWP16001 with 13 human UGT enzymes, UDPGA
Experimental: To screen for UGT enzymes responsible for glucuronidation of DWP16001, 100 μL of reaction mixtures containing 13 human cDNA-expressed UGT enzymes (1A1, 1A3, 1A4, 1A6, 1A7, 1A8, 1A9, 1A10, 2B4, 2B7, 2B10, 2B15, and 2B17) at 0.1 mg protein/mL, 5 mM UDPGA, 0.025 mg/mL alamethicin, and 25 μM DWP16001 or M1 in 50 mM Tris buffer (pH 7.4) were incubated at 37 °C for 30 min in triplicate. Reactions were stopped by adding 100 μL of ketoconazole (internal standard, 200 ng/mL) in acetonitrile, followed by vortex-mixing and centrifugation (15,000× g, 8 min, 4 °C). The supernatant (75 μL) was diluted with equal volume of 30% acetonitrile and aliquots (5 μL) were injected into an LC-MS/MS system.

CYP2C19 = target: T2, CYP2C19 (Homo sapiens, UniProt P33261); assay: CYP screening, recombinant CYP2C19; type: in vitro ADME
T2 construct: purchased Corning Life Sciences
Experimental: DWP16001, M1, or M2 was incubated with 11 human cDNA-expressed CYP enzymes (1A1, 1A2, 2A6, 2B6, 2C8, 2C9, 2C19, 2D6, 2E1, 3A4, and 3A5) to identify the CYP enzymes involved in the metabolism of DWP16001. Reaction mixtures of 95 µL containing DWP16001 (final concentration: 5 µM), M1 or M2 (final concentration: 10 µM), and CYPs (final amount: 10 pmol) were prepared in 0.1 M potassium phosphate buffer (pH 7.4). The reaction was started by adding 5 µL of NADPH-generating system; the mixtures were incubated for 30 min at 37 °C in triplicate. Reactions were stopped by the addition of 400 µL of ice-cold ketoconazole (internal standard, 200 ng/mL) in ice-cold acetonitrile. Samples were centrifuged at 15,000× g for 8 min at 4 °C. Seventy-five microliter aliquots of the supernatants were diluted with 75 µL of deionized water and analyzed using an LC–MS/MS system.

T1 sequence (P08684 whole entry): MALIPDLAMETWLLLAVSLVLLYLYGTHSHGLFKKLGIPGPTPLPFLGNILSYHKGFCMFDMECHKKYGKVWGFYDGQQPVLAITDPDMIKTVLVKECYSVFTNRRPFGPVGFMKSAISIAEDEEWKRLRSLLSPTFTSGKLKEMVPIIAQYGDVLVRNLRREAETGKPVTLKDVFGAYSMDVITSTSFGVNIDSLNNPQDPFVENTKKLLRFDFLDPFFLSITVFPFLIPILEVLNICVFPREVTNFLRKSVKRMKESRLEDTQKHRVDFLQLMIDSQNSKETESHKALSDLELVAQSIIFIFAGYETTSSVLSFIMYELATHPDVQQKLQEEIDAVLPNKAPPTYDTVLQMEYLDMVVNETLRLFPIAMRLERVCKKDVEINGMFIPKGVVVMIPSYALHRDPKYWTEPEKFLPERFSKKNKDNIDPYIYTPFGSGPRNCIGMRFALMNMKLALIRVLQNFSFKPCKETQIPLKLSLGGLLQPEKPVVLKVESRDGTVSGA
T2 sequence (P33261 whole entry): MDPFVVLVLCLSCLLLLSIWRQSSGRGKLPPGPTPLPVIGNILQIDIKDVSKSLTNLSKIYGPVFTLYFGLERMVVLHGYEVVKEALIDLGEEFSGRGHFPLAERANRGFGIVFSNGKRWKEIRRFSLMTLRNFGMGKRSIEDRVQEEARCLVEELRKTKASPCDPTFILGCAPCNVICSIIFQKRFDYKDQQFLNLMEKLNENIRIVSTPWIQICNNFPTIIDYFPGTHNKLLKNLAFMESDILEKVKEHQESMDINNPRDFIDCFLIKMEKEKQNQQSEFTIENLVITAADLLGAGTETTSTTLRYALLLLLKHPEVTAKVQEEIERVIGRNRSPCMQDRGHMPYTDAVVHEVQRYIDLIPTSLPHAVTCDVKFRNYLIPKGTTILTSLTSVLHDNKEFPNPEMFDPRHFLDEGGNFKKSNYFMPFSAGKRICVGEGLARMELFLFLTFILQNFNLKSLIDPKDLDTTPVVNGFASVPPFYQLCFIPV

CLint scaled at 1 μM [1]: 61.4 mL/min/kg
half-life at 1 μM ([1]; 37 °C, 0-240 min): 8.88 h
Hepatic extraction ratio class (mouse hepatocytes; mouse): moderate (0.25–0.75)
Hepatic extraction ratio (mouse hepatocytes; mouse hepatocytes): 0.41
Clhep (mouse hepatocytes; mouse hepatocytes, well-stirred model): 36.5 mL/min/kg
Hepatic extraction ratio class (dog hepatocytes; dog): moderate (0.25–0.75)
Clhep (dog hepatocytes; dog hepatocytes, well-stirred model): 17.9 mL/min/kg
CLint scaled at 1 μM [2]: 42.7 mL/min/kg
half-life at 1 μM ([2]; 37 °C, 0-240 min): 3.73 h
Formation of M1 and M2 from DWP16001 with increasing anti-CYP3A4 antibody (CYP3A4): decreased
Hepatic extraction ratio (human hepatocytes): 0.22
Clhep (human hepatocytes; well-stirred model): 4.5 mL/min/kg
CLint scaled at 1 μM [3]: 5.7 mL/min/kg
half-life at 1 μM ([3]; 37 °C, 0-240 min): 14.4 h
CLint scaled at 1 μM [4]: 9.8 mL/min/kg
half-life at 1 μM ([4]; 37 °C, 0-240 min): 16.5 h
Hepatic extraction ratio (rat hepatocytes): 0.15
Clhep (rat hepatocytes; well-stirred model): 8.3 mL/min/kg
Formation of U3 from DWP16001 (13 human UGT enzymes): not formed
Substrate of CYP2C19 (CYP2C19): substrate
SMILES: OC[C@H]1O[C@@H](c2cc(Cc3ccc(C4CC4)cc3)c(Cl)c3c2CCO3)[C@H](O)[C@@H](O)[C@@H]1O [DWP16001, (2S,3R,4R,5S,6R)-2-(7-chloro-6-(4-cyclopropylbenzyl)-2,3-dihydrobenzofuran-4-yl)-6-(hydroxymethyl)tetrahydro-2H-pyran-3,4,5-triol]
IC50 (SGLT2): 800 ± 300 pM
Hepatic extraction ratio class (human hepatocytes): low (Hepatic extraction ratio values of ≤ 0.25)
Hepatic extraction ratio class (rat hepatocytes): low (Hepatic extraction ratio values of ≤ 0.25)
